Test results reported in patent US20140199261A1, “METHOD OF REDUCING MULTI-DRUG RESISTANCE USING INOSITOL TRIPYROPHOSPHATE” (Universite de Strasbourg, priority 2009, published 2014).

Legend:
endothelial cells = experiment: Endothelial cell sensitivity to chemotherapeutic drugs; type: cell-based, mouse; conditions: drug by itself, FIG. 4C
Protocol: Cell viability was evaluated by Alamar blue test (Biosource) as described by the manufacturer.

[1] = system: B16F10LucGFP murine melanoma cells; experiment: Experimental metastasis assay (intravenous B16F10LucGFP melanoma cells), lung markers; type: in vivo, mouse
Protocol: After intravenous injection of B16F10LucGFP murine melanoma cells (10^5 cells in 0.1 ml saline) in the tail vein, mice (eight-week-old female C57BL/6 from Janvier) were treated by 1.5 g/kg ITPP IP injected every 5 days (10 mice per treatment group). Treatment was initiated at day 5 after tumor cells inoculation. 19 or 27 days later, mice were euthanized and lungs collected separately. Macroscopic lung foci were counted and luciferase was determined by chemoluminescence assay (Promega) in order to quantify the amount of melanoma cells in tissues. All animal study procedures and the use of animals were approved by the Comite d'Ethique pour l'expérimentation animale, Campus CNRS d'Orléans, France.
Lungs were homogenized in lysis buffer (Active motif). After centrifugations, clear supernatant was collected. Total protein amount was determined by BCA protein assay kit (Thermo Scientific). HIF-1α, VEGF, Tie-2 and HO-1 in lung lysates were quantified using colorimetric sandwich ELISA according to the manufacturer's instructions. The HIF-1α, VEGF and Tie-2 ELISA kits were from R&D. The HO-1 ELISA kit was from Takara.
The Taqman polymerase chain reaction primer sequences for LOX were 5′-[…]-3′ (SEQ ID NO: 1) and 5′-[…]-3′ (SEQ ID NO: 2). For β-actin (internal control), the primer sequences were 5′-[…] ATCC-3′ (SEQ ID NO: 3) and 5′-[…]-3′ (SEQ ID NO: 4). The amplified cDNAs bands were quantified with ImageQuant software (Becton and Dickinson). LOX mRNA levels were normalized relatively to β-actin mRNA.
To validate ITPP as an anti-metastatic agent, the “artificial” model of lung metastasis was used by injecting intravenously melanoma cells in mice. The B16F10LucGFP cell line was used, which is the melanoma B16F10 line transduced by GFP and luciferase reporter genes allowing to track and quantify the melanoma cells by analysis of luciferase activity in tissues.

[2] = system: subcutaneous melanoma tumor; experiment: Oxylite pO2 measurement in subcutaneous melanoma tumor; type: in vivo, mouse
Protocol: (§1) B16F10LucGFP cells were grown as subcutaneous tumors, after injecting 100 μl of a plug constituted by 10^5 cells in 25% Matrigel™ (50% in OptiMEM). Matrigel was from BD Biosciences and OptiMEM from Invitrogen. Mice were euthanized and tumors and lungs excised 25 days after inoculation. […] Treatment was initiated 7, 9 or 11 days post melanoma cell inoculation.
The oxylite 2000E PO2 system (Oxford Optronics) measures pO2 by determining the O2-dependant fluorescence lifetime of ruthenium chloride which is immobilized at the tip of 230-μm diameter fiber-optic probe. The lifetime of the fluorescent pulse is inversely proportional to the oxygen tension in the tip. The mouse was anesthetized with intraperitoneal injection of xylazine/ketamin before the oxylite probe tip was installed inside the tumor and oxygen pressure recorded as described.
To confirm that ITPP-RBCs counteract hypoxia in vivo, a comparison of the values of the oxygen tension inside the melanoma tumors implanted subcutaneously above the left leg, in ITPP-treated and untreated mice was performed. Oxygen pressure (pO2) was computed by determining the O2-dependent fluorescence lifetime of ruthenium chloride on the tip of a fibre-optic probe. The lifetime of the fluorescent pulse is inversely proportional to the oxygen tension in the tip of the probe. While the tumors in non-treated animals, were strongly hypoxic with an oxygen pressure value below 2 mmHg (FIG. 1), in tumors of ITPP-treated mice pO2 reached the range of 40 mmHg (FIG. 1A). This pO2 increase occurred as soon as 30 minutes after intra-peritoneal injection of ITPP (FIG. 1B, C) and was maintained at a high level, up to 40 mmHg, as shown 24 hours after injection (FIG. 1A) for at least 48 hours.

[3] = system: Rat tumor in Nude Mouse (ductal pancreatic adenocarcinoma); experiment: Median survival, rat pancreatic tumor in nude mouse; type: in vivo
Text: (§2) Median survival time of animals with ductal pancreatic adenocarcinoma treated with OXY111A and/or gemcitabine was followed and summarized in Table 1 below: […]

[4] = system: Human Panc-1 pancreatic tumor xenograft; experiment: Median survival, human Panc-1 pancreatic tumor xenograft in nude mouse; type: in vivo
Protocol: In the ITPP treatment group, mice with tumor xenograft were treated with ITPP (2 mg/Kg) weekly during the period of day 14 to day 49. In the gemcitabine treatment group, mice with tumor xenograft were treated with gemcitabine (100 mg/Kg) on days 16, 18 and 20. Animals in the control group were not treated.
In the combination treatment group, mice with tumor xenograft were treated with ITPP (2 mg/Kg) in combination with gemcitabine (25 mg/Kg or 50 mg/Kg) weekly during the period of day 14 to day 49. In the
gemcitabine treatment group, mice with tumor xenograft were treated with gemcitabine (100 mg/Kg) on days 16, 18 and 20. Animals in the control group were not treated.
In the xenograft tumor model, mice in the combination treatment group received administration of ITPP (2 mg/Kg) in combination with gemcitabine (25 mg/Kg or 50 mg/Kg) weekly during the period of day 14 to day 49. Mice in the gemcitabine treatment group received administration of gemcitabine (100 mg/Kg) on days 16, 18 and 20. Mice in the control group were not treated.
as §2

B16 tumor = experiment: Immune cell infiltration into B16 tumor; type: in vivo
Protocol: OXY111A was injected intraperitoneally on days 7, 8, 14, 15, 21, 22, 29 and 30. Analysis of the B16 tumor was performed on day 31.
(a) to (c) untreated B16 tumor; (d) to (f) B16 tumor treated with ITPP. Green arrows indicate the infiltrating NK cells; red arrows indicate the vessel walls.
B16 tumor cells were labeled with B16F10 DAPI; NK cells were labeled by anti-CD49bFITCl; and vessel endothelial cells were labeled by antiCD31TRITC. (a) untreated B 16 tumor; (b) and (c) B 16 tumor treated with ITPP.

[5] = system: Human MiaPaca in Nude Mouse; experiment: Median survival, human MiaPaca tumor in nude mouse; type: in vivo
Text: as §2

[6] = system: Syngeneic rat tumor in rat (ductal pancreatic adenocarcinoma); experiment: Median survival, syngeneic rat pancreatic tumor in rat; type: in vivo
Protocol: In the ITPP treatment group, rats with pancreatic tumor were treated with ITPP (1.5 mg/Kg) weekly during the period of day 14 to day 49. In the gemcitabine treatment group, rats with pancreatic tumor were treated with gemcitabine (100 mg/Kg) on days 16, 18 and 20. Animals in the control group were not treated.
In the combination treatment group, rats with pancreatic tumor were treated with ITPP (1.5 mg/Kg) in combination with gemcitabine (25 mg/Kg or 50 mg/Kg) weekly during the period of day 14 to day 49. In the gemcitabine treatment group, rats with pancreatic tumor were treated with gemcitabine (100 mg/Kg) on days 16, 18 and 20. Animals in the control group were not treated.
In the rat pancreatic tumor model, rats in the combination treatment group received ITPP (1.5 mg/Kg) in combination with gemcitabine (25 mg/Kg or 50 mg/Kg) weekly during the period of day 14 to day 49. Rats in the gemcitabine treatment group received administration of gemcitabine (100 mg/Kg) alone on days 16, 18 and 20. Rats in the control group were not treated.
as §2

[7] = system: B16F10LucGFP subcutaneous tumors; experiment: Subcutaneous melanoma model (lung metastases, vessel normalization, drug efflux pump); type: in vivo, mouse
Protocol: as §1
Tumor tissues were embedded in Tissue-Tek (Sakura), tissue freezing medium and snap frozen in liquid nitrogen. Cryosections were fixed and stained using a rat monoclonal IgG2a antibodies against mouse CD31 (PECAM-I, platelet/endothelial cell adhesion molecule) from eBiosciences, rabbit IgG anti-SMA (smooth muscle actin) antibody (AbCAM), or mouse IgG2a anti-P-Glycoprotein (C219) (Calbiochem), diluted 1:200 in FCS 5% in PBS. Goat IgG-FITC-labeled anti-rat immunoglobulin, goat IgG-FITC-labelled anti-rabbit immunoglobulin or goat IgG-FITC-labelled anti-mouse immunoglobulin (diluted 1:200 in PBS) was used as secondary antibodies respectively. To detect cell nuclei, sections were incubated with bis-Benzimide H 33258 (Sigma-Aldrich) 1:1000 in PBS. Specimens were mounted in Vectashield (Vector) and fluorescent microscopy detection was performed on a Zeiss 200M inverted fluorescent microscope. Tumor necrosis was analysed after Hematoxylin eosine staining of tumor sections.
MRI assays were performed with a 9.4 T horizontal magnet for small animals (94/21 USR Bruker Biospec), equipped with a 950 mT/m gradient set. Mice were placed in a linear homogeneous coil (inner diameter: 35 mm). Animals were maintained under gaseous (50% N2O: 0.7 l/min—50% O2: 0.7l/min—Isoflurane 1.5%) anesthesia, temperature kept constant at 36° C. and breathing rate was monitored during the acquisitions using air balloon placed on the mouse chest to adjust the anesthetic output. Measurement of tumor vascularization was performed by MR angiography using the Fast Low Angle Shot (FLASH) sequence both in the axial and coronal planes. The FLASH pulse sequence was adapted to the study of the evolution of the angiogenesis of the tumor. This technique allows the 3D structure of the vascular tree of the tumor on the same animal to be followed overtime.
Structural changes of microcirculation in tumors were assessed by MRA (Magnetic Resonance Angiography) adaptation of Magnetic Resonance Imaging (MRI) to follow the 3D structure of the vascular tree of the tumor.

## CC(=O)O[C@H]1C(=O)[C@@]2(C)[C@H]([C@H](OC(=O)c3ccccc3)[C@]3(O)C[C@H](OC(=O)[C@H](O)[C@@H](NC(=O)c4ccccc4)c4ccccc4)C(C)=C1C3(C)C)[C@]1(OC(C)=O)CO[C@@H]1C[C@@H]2O [Paclitaxel, paclitaxel]
Endothelial cells
  Growth of endothelial cells: inhibited the growth of the endothelial cells

## O=P1([O-])OC2C3OP(=O)([O-])OP(=O)([O-])OC3C3OP(=O)([O-])OP(=O)([O-])OC3C2OP(=O)([O-])O1.[Na+].[Na+].[Na+].[Na+].[Na+].[Na+] (stereo not drawn) [ITPP, hexasodium myo-inositol trispyrophosphate]
[1]; ELISA on lung lysates
  Tie-2 expression in lungs: re-induced
  VEGF level in lungs: decreased to control levels
[1]; ELISA on lung lysates, vs untreated melanoma bearing mice
  HIF-1α levels in lungs: decreased dramatically
[1]; ELISA, compared to non-treated mice
  HO-1 expression in lungs: significantly reduced
[1]; ITPP treatment started from day 5, until day 27
  Metastatic nodules in lung: very significantly reduced
[1]; semi-quantitative PCR
  Lysyl-oxidase (LOX) mRNA: beneficial effect
[2]; 24 hours after injection
  pO2 level maintained in tumor: up to 40 mmHg
[2]; after injection
  Duration of high tumor pO2: at least 48 hours
[2]; after intra-peritoneal injection of ITPP
  Time to pO2 increase in tumor: 30 minutes
[2]; parallel measurement in same animal
  pO2 in muscle of non tumoral leg: no change or any effect on pO2 was detected
[2]; tumors of ITPP-treated mice, FIG. 1A
  Oxygen pressure (pO2) in tumor: ~40 mmHg
[3]; OXY111A alone, 2 mg/kg
  Median survival time: 107 days
[4]; OXY111A alone, 2 mg/kg
  Median survival time: 155 days
B16 tumor; in vivo
  Infiltration of CD49b NK cells into tumor: significantly enhanced
  Presence of CD31 EC cells in tumor: significantly enhanced
B16 tumor; intraperitoneal injections on days 7, 8, 14, 15, 21, 22, 29 and 30
  Infiltration of CD68 (M2 type) macrophages into tumor: significantly enhanced
[5]; OXY111A alone, 2 mg/kg
  Median survival time: 155 days
[6]; OXY111A alone, 1.5 mg/kg
  Median survival time: 102 days
[7]; ITPP on day 9 and 14, repeated on days 18 and 19
  Tumor vasculature (MRA): less dense and remarkably normalized
[7]; ITPP on days 9, 14, 18, 19
  Tumor size: remarkable reduction of the tumor size
[7]; implanted primary tumors, immunostaining
  P-glycoprotein drug efflux pump in tumor: down-regulates
[7]; initiation of ITPP on day 9 or 11
  Lung metastases: less effective
[7]; initiation on day 9 or 11, chronic administrations
  Lung metastases: enhancement of pulmonary metastases
[7]; short-term treatment (3 ITPP injections, 5 days intervals) started on day 7
  Lung metastases: reduced significantly the lung metastases

## Nc1ccn([C@@H]2O[C@H](CO)[C@@H](O)C2(F)F)c(=O)n1 [Gemcitabine, gemcitabine, reference compound]
[3]; Gemcitabine alone, 100 mg/kg
  Median survival time: 89 days
[4]; Gemcitabine alone, 100 mg/kg
  Median survival time: 141 days
[5]; Gemcitabine alone, 100 mg/kg
  Median survival time: 140 days
[6]; Gemcitabine alone, 100 mg/kg
  Median survival time: 58 days

## N.N.[Cl][Pt][Cl] [cisplatin, cis-dichlorodiamine platinum]
Endothelial cells
  Growth of endothelial cells: inhibited the growth of the endothelial cells
